# In ChEMBL document CHEMBL4334495, “Design and Biological Evaluation of m-Xylene Thioether-Stapled Short Helical Peptides Targeting the HIV-1 gp41 Hexameric Coiled-Coil Fusion Complex” (J Med Chem, 2019):
# pEC50: −log10 of the molar value. Starred links: 1 amine or outer side, 2 acyl side, 3 side chain; linkers in the order of their positions; H or OH if unused. Positions of bridges follow the written chain, without caps; N, C: chain ends. Non-standard residues stand in square brackets, D forms with d. Residues, ends and D or L forms follow the SMILES beside them. ξ: configuration not given here. mXylylene = c1cc(C[*:1])cc(C[*:2])c1; ξhCys = NC(CCS)C(=O)O
# Legend:
# [1] = test system: Human immunodeficiency virus 1; assay: Synergistic antiviral activity against R5 tropic HIV-1 subtype-B Bal infected in human MT2 cells or CEMx174 5.25 M7 cells assessed as reduction in p24 Gag protein production by measuring combination index at 6:1 ratio of hCS6ERE to compound measured at 4 days post-infection by ELISA; assay type: functional, HIV-1 group M
# [2] = test system: Human immunodeficiency virus 1; assay: (§1) Ratio of EC50 for antiviral activity against X4 tropic HIV-1 subtype-B 3B infected in human MT2 cells or CEMx174 5.25 M7 cells in absence of HP23 to EC50 for antiviral activity against X4 tropic HIV-1 subtype-B 3B infected in human MT2 cells or CEMx174 5.25 M7 cells at 24:1 compound to HP23 ratio; assay type: functional, HIV-1 group M
# [3] = molecular target: Envelope glycoprotein gp160 (Human immunodeficiency virus 1) (UniProt Q6QLK5); assay: (§2) Ratio of EC50 for inhibition of HIV1 gp41-induced cell-cell fusion between viral envelope expressing human HL2/3 cells to CD4/CCR5 receptor expressing TZM-bl cells in absence of HP23 to EC50 for inhibition of HIV1 gp41-induced cell-cell fusion between viral envelope expressing human HL2/3 cells to CD4/CCR5 receptor expressing TZM-bl cells at 2:1 compound to HP23 ratio
# [4] = test system: Human immunodeficiency virus 1; assay: (§3) Synergistic antiviral activity against T2635 resistant HIV1 LAI harboring Q66R mutant infected in human MT2 cells or CEMx174 5.25 M7 cells assessed as reduction in p24 Gag protein production by measuring combination index at 50:1 compound ratio measured at 4 days post infection by ELISA; assay type: functional, M:B_Lai
# [5] = test system: Human immunodeficiency virus 1; assay: as §1, with “T20 resistant HIV1 NL4-3 harboring with V38E/N42S mutant” for “X4 tropic HIV-1 subtype-B 3B”, “14000:1” for “24:1”; assay type: functional
# [6] = test system: Human immunodeficiency virus 1; assay: (§4) Ratio of EC50 for antiviral activity against HIV1 NL4-3 infected in human MT2 cells or CEMx174 5.25 M7 cells in absence of HP23 to EC50 for antiviral activity against HIV1 NL4-3 infected in human MT2 cells or CEMx174 5.25 M7 cells at 20:1 compound to HP23 ratio; assay type: functional
# [7] = test system: Human immunodeficiency virus 1; assay: Synergistic antiviral activity against R5 tropic HIV-1 subtype-B Bal infected in human MT2 cells or CEMx174 5.25 M7 cells assessed as reduction in p24 Gag protein production by measuring combination index at 12:1 ratio of hCS6ERE to compound measured at 4 days post-infection by ELISA; assay type: functional, HIV-1 group M
# [8] = Metabolic stability in rat liver homogenates assessed as parent compound remaining at 3 to 100 uM after 2 hrs by RP-HPLC analysis; assay type: ADME, tissue-based; conditions: read-out: Stability
# [9] = molecular target: Envelope glycoprotein gp160 (Human immunodeficiency virus 1) (UniProt Q6QLK5); assay: as §2, with “4:1” for “2:1”
# [10] = test system: Human immunodeficiency virus 1; assay: (§5) Ratio of EC50 for antiviral activity against R5 tropic HIV-1 subtype-B Bal infected in human MT2 cells or CEMx174 5.25 M7 cells in absence of HP23 to EC50 for antiviral activity against R5 tropic HIV-1 subtype-B Bal infected in human MT2 cells or CEMx174 5.25 M7 cells at 12:1 compound to HP23 ratio; assay type: functional, HIV-1 group M
# [11] = test system: Human immunodeficiency virus 1; assay: as §3, with “T20” for “T2635”, “NL4-3” for “LAI”, “with V38E/N42S” for “Q66R”, “7000:1” for “50:1”, “compound to HP23” for “compound”, “post-infection” for “post infection”; assay type: functional
# [12] = test system: Human immunodeficiency virus 1; assay: Synergistic antiviral activity against HIV1 NL4-3 infected in human MT2 cells or CEMx174 5.25 M7 cells assessed as reduction in p24 Gag protein production by measuring combination index at 10:1 compound to HP23 ratio measured at 4 days post-infection by ELISA; assay type: functional
# [13] = test system: Human immunodeficiency virus 1; assay: as §4, with “against T20 resistant” for “against”, “NL4-3 harboring with V38E/N42S mutant” for “NL4-3”, “3500:1” for “20:1”; assay type: functional
# [14] = molecular target: Envelope glycoprotein gp160 (Human immunodeficiency virus 1) (UniProt Q6QLK5); assay: as §2, with “1:1” for “2:1”
# [15] = test system: Human immunodeficiency virus 1; assay: Synergistic antiviral activity against R5 tropic HIV-1 subtype-B Bal infected in human MT2 cells or CEMx174 5.25 M7 cells assessed as reduction in p24 Gag protein production by measuring combination index at 3:1 ratio of hCS6ERE to compound measured at 4 days post-infection by ELISA; assay type: functional, HIV-1 group M
# [16] = test system: Human immunodeficiency virus 1; assay: Antiviral activity against HIV1 NL4-3 infected in human MT2 cells or CEMx174 5.25 M7 cells assessed as reduction in p24 Gag protein production at 20:1 compound to HP23 ratio measured at 4 days post-infection by ELISA; assay type: functional, organism-based; conditions: Human immunodeficiency virus 1, NL4-3, 96 h
# [17] = test system: Human immunodeficiency virus 1; assay: Antiviral activity against T20 resistant HIV1 NL4-3 harboring with V38E/N42S mutant infected in human MT2 cells or CEMx174 5.25 M7 cells assessed as reduction in p24 Gag protein production at 3500:1 compound to HP23 ratio measured at 4 days post-infection by ELISA; assay type: functional, organism-based
# [18] = test system: Human immunodeficiency virus 1; assay: Antiviral activity against HIV1 NL4-3 infected in human MT2 cells or CEMx174 5.25 M7 cells assessed as reduction in p24 Gag protein production at 10:1 hCS6ERE to compound ratio measured at 4 days post-infection by ELISA; assay type: functional, organism-based; conditions: Human immunodeficiency virus 1, NL4-3, 96 h
# [19] = test system: Human immunodeficiency virus 1; assay: Ratio of EC50 for antiviral activity against T20 resistant HIV1 NL4-3 harboring with V38E/N42T mutant infected in human MT2 cells or CEMx174 5.25 M7 cells in absence of hCS6ERE to EC50 for Antiviral activity against T20 resistant HIV1 NL4-3 harboring with V38E/N42T mutant infected in human MT2 cells or CEMx174 5.25 M7 cells at 300:1 hCS6ERE to compound ratio; assay type: functional
# [20] = test system: Human immunodeficiency virus 1; assay: as §5, with “hCS6ERE” for “HP23”, “24:1 ratio of hCS6ERE to” for “12:1”, “compound” for “compound to HP23 ratio”; assay type: functional, HIV-1 group M
# [21] = test system: Human immunodeficiency virus 1; assay: as §5, with “hCS6ERE” for “HP23”, “12:1 ratio of hCS6ERE to” for “12:1”, “compound” for “compound to HP23 ratio”; assay type: functional, HIV-1 group M
# [22] = test system: Human immunodeficiency virus 1; assay: Antiviral activity against T20 resistant HIV1 NL4-3 harboring with V38E/N42T mutant infected in human MT2 cells or CEMx174 5.25 M7 cells assessed as reduction in p24 Gag protein production at 600:1 hCS6ERE to compound ratio measured at 4 days post-infection by ELISA; assay type: functional, organism-based
# [23] = test system: Human immunodeficiency virus 1; assay: Antiviral activity against HIV1 NL4-3 infected in human MT2 cells or CEMx174 5.25 M7 cells assessed as reduction in p24 Gag protein production at 5:1 hCS6ERE to compound ratio measured at 4 days post-infection by ELISA; assay type: functional, organism-based; conditions: Human immunodeficiency virus 1, NL4-3, 96 h
# Sequence of Envelope glycoprotein gp160 (Human immunodeficiency virus 1) (Q6QLK5 1-814): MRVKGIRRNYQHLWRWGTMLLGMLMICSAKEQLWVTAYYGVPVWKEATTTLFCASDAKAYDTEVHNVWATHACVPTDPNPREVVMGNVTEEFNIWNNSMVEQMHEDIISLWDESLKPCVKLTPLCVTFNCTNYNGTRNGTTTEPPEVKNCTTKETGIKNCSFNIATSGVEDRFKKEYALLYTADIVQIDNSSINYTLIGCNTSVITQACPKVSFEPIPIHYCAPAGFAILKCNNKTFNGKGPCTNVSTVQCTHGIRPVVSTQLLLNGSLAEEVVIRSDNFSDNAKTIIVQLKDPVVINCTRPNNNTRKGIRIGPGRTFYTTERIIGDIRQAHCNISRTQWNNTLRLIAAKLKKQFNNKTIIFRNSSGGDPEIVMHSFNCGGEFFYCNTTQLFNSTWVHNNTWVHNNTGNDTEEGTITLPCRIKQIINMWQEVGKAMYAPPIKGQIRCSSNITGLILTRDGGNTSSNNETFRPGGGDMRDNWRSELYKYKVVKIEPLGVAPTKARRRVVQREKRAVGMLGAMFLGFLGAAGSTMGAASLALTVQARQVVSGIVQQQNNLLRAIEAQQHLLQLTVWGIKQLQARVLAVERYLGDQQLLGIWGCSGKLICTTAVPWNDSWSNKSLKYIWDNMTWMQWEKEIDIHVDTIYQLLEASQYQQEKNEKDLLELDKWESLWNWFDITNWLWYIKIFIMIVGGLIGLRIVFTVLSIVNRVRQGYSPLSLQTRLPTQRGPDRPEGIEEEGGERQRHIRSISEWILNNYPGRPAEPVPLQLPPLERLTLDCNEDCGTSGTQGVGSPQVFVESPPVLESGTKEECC
molecule,measurement,setting,value
CC[C@H](C)[C@H](NC(C)=O)C(=O)N[C@@H](CCC(=O)O)C(=O)N[C@@H](CCC(=O)O)C(=O)N[C@@H](CC(C)C)C(=O)N[C@H](C(=O)NC1CCSCc2cccc(c2)CSCCC(C(=O)N[C@@H](CCC(N)=O)C(=O)N[C@@H](CCC(N)=O)C(=O)N[C@@H](CCCNC(=N)N)C(=O)N[C@@H](CCCCN)C(=O)N[C@@H](CC(N)=O)C(=O)N[C@@H](CCC(=O)O)C(=O)N[C@@H](CCC(=O)O)C(=O)N[C@@H](C)C(=O)N[C@@H](CC(C)C)C(=O)N[C@@H](CCCNC(=N)N)C(=O)N[C@@H](CCC(=O)O)C(=O)N[C@@H](CC(C)C)C(N)=O)NC(=O)[C@H](CCC(N)=O)NC(=O)[C@H](C)NC(=O)[C@H](C)NC1=O)[C@@H](C)CC (stereo partly drawn) (Ac-IEELI[ξhCys]AAQ[ξhCys]QQRKNEEALREL-NH2; linker 6-10 via mXylylene),CI,[1],0.8
same,Ratio EC50,[2],1.6
same,Ratio EC50,[3],2
same,CI,[4],0.4
same,Ratio EC50,[5],2.2
same,Ratio EC50,[6],1.6
same,CI,[7],0.6
same,"remaining at 2 h, up to 100 µM",[8],27.4%
same,Ratio EC50,[9],2.9
same,Ratio EC50,[10],2.6
same,CI,[11],0.6
same,CI,[12],0.7
same,Ratio EC50,[13],3.4
same,Ratio EC50,[14],2
same,CI,[15],0.8
same,pEC50,[16],7.85
same,pEC50,[17],5.69
H-EMTWEEWEKKIEEYTKKIEEILK-OH,pEC50,[18],9.05
same,Ratio EC50,[19],2.9
same,Ratio EC50,[20],5.2
same,Ratio EC50,[21],2.6
same,pEC50,[22],9.10
same,pEC50,[23],9.05
